The text below walks through data of patent publication US8309552B2, “Immunomodulating heterocyclic compounds” (Medigene AG, priority 2003, dated 2012).

pEC50: −log10 of the molar value.

The target of the assay is T1, CD80-CD28 interaction (Homo sapiens, UniProt P33681).
T1 sequence (P33681 35-242 limits assumed): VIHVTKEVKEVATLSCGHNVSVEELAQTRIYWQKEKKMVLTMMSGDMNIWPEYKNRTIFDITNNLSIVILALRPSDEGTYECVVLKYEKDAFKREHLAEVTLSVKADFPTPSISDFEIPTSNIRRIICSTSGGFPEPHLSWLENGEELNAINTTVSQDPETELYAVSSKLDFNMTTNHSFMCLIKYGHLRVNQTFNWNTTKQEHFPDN
Description: Homogenous Time Resolved Fluorescence (HTRF) assay, cell free. In kind it is binding. The settings on record: cell free HTRF assay; concentration series 100 μM-1.7 nM; 4 hours at room temperature; read-out: Activity (EC50 in the HTRF assay). Put shortly:
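Europium and APC labels were linked through antibodies to CD28 and CD80 fusion proteins. Compounds were tested at 100 μM-1.7 nM for 4 h at room temperature in 50 mM Tris-HCl, 150 mM NaCl pH7.8, 0.1% BSA. Emission read at 665 and 615 nm (excitation 340 nm); non-specific signal measured with C215 Fab in place of CD80; EC50 reported in bands.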
As usually defined, the pEC50 is the negative decadic logarithm of the EC50, by convention in mol/L. `CCC(C)CNC(=O)Nc1ccc(-n2[nH]c3c(nnc4ccccc43)c2=O)cc1` (stereo not drawn) [Example 308]: the pEC50 was 5.00 to 6.00.

Consider `CCC(C)NC(=O)Nc1ccc(-n2[nH]c3c(nnc4ccccc43)c2=O)cc1` (stereo not drawn) [Example 309], for which the pEC50 is 5.00 to 6.00.

On to `CCN1CCCC1CNC(=O)Nc1ccc(-n2[nH]c3c(nnc4ccccc43)c2=O)cc1` (stereo not drawn) [Example 310], for which the pEC50 was more than 6.00.

Consider `O=C(NCC(F)F)c1ccc(-n2[nH]c3c(nnc4ccccc43)c2=O)cc1` [Example 311], for which the negative logarithm of the EC50 (pEC50) is more than 6.00.

Take `O=C(NCCC(F)(F)F)c1ccc(-n2[nH]c3c(nnc4ccccc43)c2=O)cc1` [Example 312]: the pEC50 is more than 6.00.

With `O=C(NC1C2CC3CC(C2)CC1C3)c1ccc(-n2[nH]c3c(nnc4ccccc43)c2=O)cc1` (stereo not drawn) [Example 313], the pEC50 is 5.00 to 6.00.

As for `C#CC1(NC(=O)c2ccc(-n3[nH]c4c(nnc5ccccc54)c3=O)cc2)CCCCC1` [Example 314], the pEC50 was more than 6.00.

In the case of `O=C(NC1CC1c1ccccc1)c1ccc(-n2[nH]c3c(nnc4ccccc43)c2=O)cc1` (stereo not drawn) [Example 315], the negative logarithm of the EC50 (pEC50) was 5.00 to 6.00.

`CC1CCCCC1NC(=O)c1ccc(-n2[nH]c3c(nnc4ccccc43)c2=O)cc1` (stereo not drawn) [Example 316]: the pEC50 was 5.00 to 6.00.

Consider `CC1CCCC(NC(=O)c2ccc(-n3[nH]c4c(nnc5ccccc54)c3=O)cc2)C1C` (stereo not drawn) [Example 317], for which the pEC50 is 5.00 to 6.00.

As for `CC12CCC(C1)C(C)(C)C2NC(=O)c1ccc(-n2[nH]c3c(nnc4ccccc43)c2=O)cc1` (stereo not drawn) [Example 318], the pEC50 was more than 6.00.

Turning to `CC(C)(C)NC(=O)c1ccc(-n2[nH]c3c(nnc4ccccc43)c2=O)cc1` [Example 319], the pEC50 was more than 6.00.

On to `C[Si](C)(C)CNC(=O)c1ccc(-n2[nH]c3c(nnc4ccccc43)c2=O)cc1` [Example 320], for which the pEC50 was less than 5.00.

As for `CCCC(C)NC(=O)c1ccc(-n2[nH]c3c(nnc4ccccc43)c2=O)cc1` (stereo not drawn) [Example 321], the pEC50 was more than 6.00.

For `CCCCC(C)NC(=O)c1ccc(-n2[nH]c3c(nnc4ccccc43)c2=O)cc1` (stereo not drawn) [Example 322], the pEC50 is more than 6.00.

`O=C(NC1CCN(Cc2ccccc2)CC1)c1ccc(-n2[nH]c3c(nnc4c(F)cccc43)c2=O)cc1` [Example 323]: the pEC50 was more than 6.00.

`CN(C)CCNC(=O)Nc1ccc(-n2[nH]c3c(nnc4c(F)cccc43)c2=O)cc1` [Example 324]: the pEC50 is more than 6.00.

As to `O=C(NCCCCN1CCCC1)c1ccc(-n2[nH]c3c(nnc4ccc(F)cc43)c2=O)cc1` [Example 325], the pEC50 was more than 6.00.

As to `CCN(CC)CCNC(=O)c1ccc(-n2[nH]c3c(nnc4ccc(F)cc43)c2=O)cc1` [Example 326], the pEC50 was more than 6.00.

Regarding `CN1CCCC1CCNC(=O)c1ccc(-n2[nH]c3c(nnc4ccc(F)cc43)c2=O)cc1` (stereo not drawn) [Example 327], the pEC50 was more than 6.00.

For `O=C(NC1CCN(Cc2ccccc2)CC1)c1ccc(-n2[nH]c3c(nnc4ccc(F)cc43)c2=O)cc1` [Example 328], the pEC50 is more than 6.00.

With `CCCCN(CCCC)CCCNC(=O)c1ccc(-n2[nH]c3c(nnc4ccc(F)cc43)c2=O)cc1` [Example 329], the pEC50 was more than 6.00.

Take `CCN(CC)CCCNC(=O)c1ccc(-n2[nH]c3c(nnc4ccc(F)cc43)c2=O)cc1` [Example 330]: the pEC50 was more than 6.00.

For the compound `O=C(NCCCN1CCCC1)c1ccc(-n2[nH]c3c(nnc4ccc(F)cc43)c2=O)cc1` [Example 331], the pEC50 was more than 6.00.

`CC1CCCCN1CCCNC(=O)c1ccc(-n2[nH]c3c(nnc4ccc(F)cc43)c2=O)cc1` (stereo not drawn) [Example 332]: the pEC50 was more than 6.00.

As for `CC=CCNC(=O)c1ccc(-n2[nH]c3c(nnc4c(F)cccc43)c2=O)cc1` [Example 333], the pEC50 is more than 6.00.

As for `O=C(CN1CCC(NC(=O)c2ccc(-n3[nH]c4c(nnc5c(F)cccc54)c3=O)cc2)CC1)c1ccccc1` [Example 334], the pEC50 was more than 6.00.

As for `CCOCCN1CCC(NC(=O)c2ccc(-n3[nH]c4c(nnc5c(F)cccc54)c3=O)cc2)CC1` [Example 335], the pEC50 is more than 6.00.

Regarding `O=C(NC1CCN(CCC2CCCCC2)CC1)c1ccc(-n2[nH]c3c(nnc4c(F)cccc43)c2=O)cc1` [Example 336], the pEC50 is more than 6.00.

Take `CC(c1ccccc1)N1CCC(NC(=O)c2ccc(-n3[nH]c4c(nnc5c(F)cccc54)c3=O)cc2)CC1` (stereo not drawn) [Example 337]: the pEC50 was more than 6.00.

`O=C(NCCCCN1CCOCC1)c1ccc(-n2[nH]c3c(nnc4ccccc43)c2=O)cc1` [Example 338]: the pEC50 was more than 6.00.

For the compound `O=C(NCCCCN1CCCCC1)c1ccc(-n2[nH]c3c(nnc4ccccc43)c2=O)cc1` [Example 339], the pEC50 was more than 6.00.

Turning to `C=C(C)CNC(=O)c1ccc(-n2[nH]c3c(nnc4c(F)cccc43)c2=O)cc1` [Example 340], the negative-log EC50 (pEC50) was more than 6.00.

On to `CCCNCCNC(=O)c1ccc(-n2[nH]c3c(nnc4c(F)cccc43)c2=O)cc1` [Example 341], for which the pEC50 is more than 6.00.

Consider `CCN(CC)CCNC(=O)c1ccc(-n2[nH]c3c(nnc4c(F)cccc43)c2=O)cc1` [Example 342], for which the pEC50 was more than 6.00.

As for `CN1CCCC1CCNC(=O)c1ccc(-n2[nH]c3c(nnc4c(F)cccc43)c2=O)cc1` (stereo not drawn) [Example 343], the pEC50 was more than 6.00.

`CCCCNCCNC(=O)c1ccc(-n2[nH]c3c(nnc4c(F)cccc43)c2=O)cc1` [Example 344]: the pEC50 is more than 6.00.

Regarding `CCN(CC)CCCNC(=O)c1ccc(-n2[nH]c3c(nnc4c(F)cccc43)c2=O)cc1` [Example 346], the pEC50 was more than 6.00.

As to `O=C(NCCNCc1ccccc1)c1ccc(-n2[nH]c3c(nnc4c(F)cccc43)c2=O)cc1` [Example 347], the pEC50 is more than 6.00.

In the case of `CC(C)NCCCNC(=O)c1ccc(-n2[nH]c3c(nnc4c(F)cccc43)c2=O)cc1` [Example 348], the pEC50 was more than 6.00.

Consider `NCCCCNC(=O)c1ccc(-n2[nH]c3c(nnc4c(F)cccc43)c2=O)cc1` [Example 351], for which the pEC50 is more than 6.00.

For `O=C(NCCCN1CCCC1)c1ccc(-n2[nH]c3c(nnc4c(F)cccc43)c2=O)cc1` [Example 352], the pEC50 was more than 6.00.

As for `CCCCOCCCNC(=O)c1ccc(-n2[nH]c3c(nnc4c(F)cccc43)c2=O)cc1` [Example 354], the pEC50 is more than 6.00.

As to `CNCCCNC(=O)c1ccc(-n2[nH]c3c(nnc4c(F)cccc43)c2=O)cc1` [Example 355], the pEC50 is more than 6.00.

On to `CNCCNC(=O)c1ccc(-n2[nH]c3c(nnc4c(F)cccc43)c2=O)cc1` [Example 356], for which the pEC50 is more than 6.00.

Consider `CCNCCNC(=O)c1ccc(-n2[nH]c3c(nnc4c(F)cccc43)c2=O)cc1` [Example 357], for which the negative-log EC50 (pEC50) was more than 6.00.

With `CC1CCCCN1CCCNC(=O)c1ccc(-n2[nH]c3c(nnc4c(F)cccc43)c2=O)cc1` (stereo not drawn) [Example 358], the pEC50 was more than 6.00.

As to `CC(Cc1c[nH]c2ccccc12)NC(=O)c1ccc(-n2[nH]c3c(nnc4c(F)cccc43)c2=O)cc1` (stereo not drawn) [Example 359], the pEC50 is more than 6.00.

Take `O=C(NCCc1ccccc1Cl)c1ccc(-n2[nH]c3c(nnc4c(F)cccc43)c2=O)cc1` [Example 360]: the negative-log EC50 (pEC50) is 5.00 to 6.00.

As to `Cc1ccc(CCNC(=O)c2ccc(-n3[nH]c4c(nnc5c(F)cccc54)c3=O)cc2)cc1` [Example 362], the pEC50 is 5.00 to 6.00.

`O=C(NCCc1ccc(Cl)cc1)c1ccc(-n2[nH]c3c(nnc4c(F)cccc43)c2=O)cc1` [Example 363]: the pEC50 was 5.00 to 6.00.

Regarding `O=C(NCCc1cccc(Cl)c1)c1ccc(-n2[nH]c3c(nnc4c(F)cccc43)c2=O)cc1` [Example 364], the pEC50 is 5.00 to 6.00.

Take `O=C(NCCc1cccc(Br)c1)c1ccc(-n2[nH]c3c(nnc4c(F)cccc43)c2=O)cc1` [Example 365]: the pEC50 was less than 5.00.

As to `Cc1ccccc1CCNC(=O)c1ccc(-n2[nH]c3c(nnc4c(F)cccc43)c2=O)cc1` [Example 366], the pEC50 was 5.00 to 6.00.

As to `O=C(NCCc1ccccc1Br)c1ccc(-n2[nH]c3c(nnc4c(F)cccc43)c2=O)cc1` [Example 368], the pEC50 is 5.00 to 6.00.

In the case of `O=C(NCCc1c(F)cccc1Cl)c1ccc(-n2[nH]c3c(nnc4c(F)cccc43)c2=O)cc1` [Example 369], the pEC50 is 5.00 to 6.00.

`O=C(NCCc1ccc(Cl)cc1Cl)c1ccc(-n2[nH]c3c(nnc4c(F)cccc43)c2=O)cc1` [Example 370]: the pEC50 was 5.00 to 6.00.

For `O=C(NCCc1c(Cl)cccc1Cl)c1ccc(-n2[nH]c3c(nnc4c(F)cccc43)c2=O)cc1` [Example 371], the pEC50 is 5.00 to 6.00.

As for `O=C(NCCc1ccc(Cl)c(Cl)c1)c1ccc(-n2[nH]c3c(nnc4c(F)cccc43)c2=O)cc1` [Example 372], the pEC50 was 5.00 to 6.00.

In the case of `O=C(NCCc1cccc(F)c1)c1ccc(-n2[nH]c3c(nnc4c(F)cccc43)c2=O)cc1` [Example 373], the pEC50 is 5.00 to 6.00.

With `CC1(C)CC(NC(=O)c2ccc(-n3[nH]c4c(nnc5c(F)cccc54)c3=O)cc2)CC(C)(C)N1` [Example 374], the negative logarithm of the EC50 (pEC50) is more than 6.00.

Regarding `CC(C)(C)NC(=O)c1ccc(-n2[nH]c3c(nnc4c(F)cccc43)c2=O)cc1` [Example 375], the pEC50 was more than 6.00.

Regarding `C=CCNC(=O)c1ccc(-n2[nH]c3c(nnc4c(F)cccc43)c2=O)cc1` [Example 377], the pEC50 is more than 6.00.

As to `CC(C)(C)c1ccc(CN2CCC(NC(=O)c3ccc(-n4[nH]c5c(nnc6c(F)cccc65)c4=O)cc3)CC2)cc1` [Example 378], the pEC50 is more than 6.00.

`CS(=O)(=O)c1ccc(CN2CCC(NC(=O)c3ccc(-n4[nH]c5c(nnc6c(F)cccc65)c4=O)cc3)CC2)cc1` [Example 380]: the pEC50 was more than 6.00.

Turning to `CCCCNCCNC(=O)c1ccc(-n2[nH]c3c(nnc4ccc(F)cc43)c2=O)cc1` [Example 384], the pEC50 is more than 6.00.
